{
  "source": "ChEMBL document CHEMBL5465560",
  "about": "“Selectivity Literature for EUbOPEN Chemogenomic Library” (2024)",
  "key": {"[1]": {"biological_target": "NT-3 growth factor receptor (Homo sapiens, UniProt Q16288)", "sequence (Q16288 32-839 limits assumed)": "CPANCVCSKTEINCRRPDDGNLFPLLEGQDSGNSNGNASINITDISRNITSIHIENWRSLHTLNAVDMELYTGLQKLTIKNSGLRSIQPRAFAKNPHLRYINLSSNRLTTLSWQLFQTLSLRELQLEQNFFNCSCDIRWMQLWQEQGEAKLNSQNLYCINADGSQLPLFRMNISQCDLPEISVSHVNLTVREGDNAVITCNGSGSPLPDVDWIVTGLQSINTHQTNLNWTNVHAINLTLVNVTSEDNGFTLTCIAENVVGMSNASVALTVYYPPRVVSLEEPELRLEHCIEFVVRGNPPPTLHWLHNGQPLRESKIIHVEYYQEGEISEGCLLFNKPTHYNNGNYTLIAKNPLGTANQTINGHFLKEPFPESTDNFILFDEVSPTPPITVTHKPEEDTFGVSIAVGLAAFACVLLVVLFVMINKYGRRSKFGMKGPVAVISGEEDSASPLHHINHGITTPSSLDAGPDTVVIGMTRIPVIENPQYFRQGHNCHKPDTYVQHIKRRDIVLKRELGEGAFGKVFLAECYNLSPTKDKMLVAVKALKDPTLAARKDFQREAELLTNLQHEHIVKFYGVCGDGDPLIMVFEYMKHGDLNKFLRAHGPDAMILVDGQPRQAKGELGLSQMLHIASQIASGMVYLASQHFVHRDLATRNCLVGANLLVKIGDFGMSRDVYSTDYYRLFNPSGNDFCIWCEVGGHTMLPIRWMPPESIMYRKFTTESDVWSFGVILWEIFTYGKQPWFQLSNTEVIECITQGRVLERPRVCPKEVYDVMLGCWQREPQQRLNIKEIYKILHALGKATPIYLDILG", "assay": "Selectivity interaction (KinomeScan (DiscoverX)) EUB0000229b NTRK3", "details": "at 10 µM"}, "[2]": {"biological_target": "Phosphatidylinositol 4,5-bisphosphate 3-kinase catalytic subunit alpha isoform (Homo sapiens) (UniProt P42336)", "sequence (P42336 whole entry, canonical isoform)": "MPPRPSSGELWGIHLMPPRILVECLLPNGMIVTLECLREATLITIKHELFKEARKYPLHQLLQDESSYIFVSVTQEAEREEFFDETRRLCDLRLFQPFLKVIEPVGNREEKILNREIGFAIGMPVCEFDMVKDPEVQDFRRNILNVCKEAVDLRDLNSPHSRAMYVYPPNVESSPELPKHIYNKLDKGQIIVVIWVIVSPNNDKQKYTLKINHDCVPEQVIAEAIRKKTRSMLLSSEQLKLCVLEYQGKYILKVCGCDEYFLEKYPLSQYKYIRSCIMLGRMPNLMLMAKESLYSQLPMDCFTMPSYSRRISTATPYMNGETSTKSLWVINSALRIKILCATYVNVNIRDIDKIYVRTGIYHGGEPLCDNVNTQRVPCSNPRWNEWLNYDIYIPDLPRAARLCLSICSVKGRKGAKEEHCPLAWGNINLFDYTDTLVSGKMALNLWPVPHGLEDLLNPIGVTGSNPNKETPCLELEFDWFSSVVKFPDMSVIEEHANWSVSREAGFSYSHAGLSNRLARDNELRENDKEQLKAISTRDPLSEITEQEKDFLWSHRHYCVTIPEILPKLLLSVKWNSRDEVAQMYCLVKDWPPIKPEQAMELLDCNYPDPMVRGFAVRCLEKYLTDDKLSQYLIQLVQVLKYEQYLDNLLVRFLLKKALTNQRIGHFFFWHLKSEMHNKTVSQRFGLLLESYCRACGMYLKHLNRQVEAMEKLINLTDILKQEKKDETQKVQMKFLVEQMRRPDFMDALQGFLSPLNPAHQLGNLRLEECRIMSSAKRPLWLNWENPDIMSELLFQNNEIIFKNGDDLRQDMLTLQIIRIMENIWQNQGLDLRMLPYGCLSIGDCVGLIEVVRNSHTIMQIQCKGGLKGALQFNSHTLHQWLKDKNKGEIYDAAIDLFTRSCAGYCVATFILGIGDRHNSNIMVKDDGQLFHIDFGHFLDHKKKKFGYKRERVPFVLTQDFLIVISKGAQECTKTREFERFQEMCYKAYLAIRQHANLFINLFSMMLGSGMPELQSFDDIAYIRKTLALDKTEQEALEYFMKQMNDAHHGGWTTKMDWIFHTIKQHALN", "assay": "Selectivity interaction (ProQinase) EUB0000171b PIK3CA"}, "[3]": {"biological_target": "Fibroblast growth factor receptor 1 (Homo sapiens, UniProt P11362)", "sequence (P11362 22-822 limits assumed)": "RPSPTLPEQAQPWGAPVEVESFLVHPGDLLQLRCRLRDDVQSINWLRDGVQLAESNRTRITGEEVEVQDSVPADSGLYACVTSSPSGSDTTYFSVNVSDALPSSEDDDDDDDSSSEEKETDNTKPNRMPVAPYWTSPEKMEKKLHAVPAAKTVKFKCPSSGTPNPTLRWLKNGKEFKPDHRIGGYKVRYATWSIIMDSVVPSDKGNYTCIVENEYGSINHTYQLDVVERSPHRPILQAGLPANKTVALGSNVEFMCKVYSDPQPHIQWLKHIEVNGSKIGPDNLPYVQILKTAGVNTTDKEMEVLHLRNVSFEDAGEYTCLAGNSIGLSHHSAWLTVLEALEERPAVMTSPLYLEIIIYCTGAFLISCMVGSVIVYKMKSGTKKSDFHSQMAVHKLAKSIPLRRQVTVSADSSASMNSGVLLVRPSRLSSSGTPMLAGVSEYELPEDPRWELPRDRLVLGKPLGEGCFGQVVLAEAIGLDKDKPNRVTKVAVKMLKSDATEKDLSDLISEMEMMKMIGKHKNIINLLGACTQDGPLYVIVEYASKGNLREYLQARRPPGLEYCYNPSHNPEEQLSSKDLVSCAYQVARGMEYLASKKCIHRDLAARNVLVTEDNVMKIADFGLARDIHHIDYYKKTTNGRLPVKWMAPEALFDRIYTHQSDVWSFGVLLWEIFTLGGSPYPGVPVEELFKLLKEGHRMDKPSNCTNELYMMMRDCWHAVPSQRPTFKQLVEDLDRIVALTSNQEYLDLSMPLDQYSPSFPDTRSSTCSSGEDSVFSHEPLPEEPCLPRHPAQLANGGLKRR", "assay": "Selectivity interaction (Kinase panel (DSF assay)) EUB0001559a FGFR1"}, "[4]": {"biological_target": "Fibroblast growth factor receptor 2 (Homo sapiens) (UniProt P21802)", "sequence (P21802 22-821 limits assumed)": "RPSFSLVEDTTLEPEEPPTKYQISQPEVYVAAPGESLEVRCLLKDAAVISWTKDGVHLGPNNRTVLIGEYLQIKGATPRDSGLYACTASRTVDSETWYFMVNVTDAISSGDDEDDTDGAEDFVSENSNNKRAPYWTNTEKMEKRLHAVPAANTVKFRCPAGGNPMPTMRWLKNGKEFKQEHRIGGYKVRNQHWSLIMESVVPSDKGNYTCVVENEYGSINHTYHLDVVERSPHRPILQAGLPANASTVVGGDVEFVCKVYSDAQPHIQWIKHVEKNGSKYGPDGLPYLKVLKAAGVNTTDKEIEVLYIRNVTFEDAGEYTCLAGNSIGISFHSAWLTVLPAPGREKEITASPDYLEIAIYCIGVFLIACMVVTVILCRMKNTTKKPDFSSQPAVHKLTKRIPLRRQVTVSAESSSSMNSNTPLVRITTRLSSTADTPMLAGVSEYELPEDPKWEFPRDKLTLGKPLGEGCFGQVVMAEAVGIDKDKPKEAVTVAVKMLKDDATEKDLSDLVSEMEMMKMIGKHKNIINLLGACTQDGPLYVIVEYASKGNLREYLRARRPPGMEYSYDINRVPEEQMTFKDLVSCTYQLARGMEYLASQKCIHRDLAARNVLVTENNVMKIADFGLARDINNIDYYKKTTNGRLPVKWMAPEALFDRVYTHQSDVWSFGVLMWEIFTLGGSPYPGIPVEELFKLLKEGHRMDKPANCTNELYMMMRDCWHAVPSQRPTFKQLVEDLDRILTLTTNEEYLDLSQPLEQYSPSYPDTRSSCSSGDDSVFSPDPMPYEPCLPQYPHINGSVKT", "assay": "Selectivity interaction (KinomeScan (DiscoverX)) EUB0001079a FGFR2", "details": "at 1 µM"}, "[5]": {"biological_target": "T1, Serine/threonine-protein kinase 3 (Homo sapiens) (UniProt Q13188)", "T1 sequence (whole entry)": "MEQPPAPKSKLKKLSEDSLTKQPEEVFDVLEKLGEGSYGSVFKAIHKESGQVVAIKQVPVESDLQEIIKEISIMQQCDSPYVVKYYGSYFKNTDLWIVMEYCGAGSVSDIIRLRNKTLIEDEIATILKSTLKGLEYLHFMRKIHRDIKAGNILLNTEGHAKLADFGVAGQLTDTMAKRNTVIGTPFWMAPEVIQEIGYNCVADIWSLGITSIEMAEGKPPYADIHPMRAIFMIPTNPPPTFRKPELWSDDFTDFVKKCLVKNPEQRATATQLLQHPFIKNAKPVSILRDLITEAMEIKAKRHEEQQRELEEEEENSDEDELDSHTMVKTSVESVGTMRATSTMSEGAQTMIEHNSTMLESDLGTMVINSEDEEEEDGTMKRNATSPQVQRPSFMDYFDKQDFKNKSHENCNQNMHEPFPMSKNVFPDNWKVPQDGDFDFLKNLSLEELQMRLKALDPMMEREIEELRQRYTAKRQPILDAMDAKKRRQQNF", "assay": "Selectivity interaction (Kinase panel (DSF assay)) EUB0001489b STK3"}, "[6]": {"biological_target": "T2, Muscle, skeletal receptor tyrosine-protein kinase (Homo sapiens) (UniProt O15146)", "T2 sequence (whole entry)": "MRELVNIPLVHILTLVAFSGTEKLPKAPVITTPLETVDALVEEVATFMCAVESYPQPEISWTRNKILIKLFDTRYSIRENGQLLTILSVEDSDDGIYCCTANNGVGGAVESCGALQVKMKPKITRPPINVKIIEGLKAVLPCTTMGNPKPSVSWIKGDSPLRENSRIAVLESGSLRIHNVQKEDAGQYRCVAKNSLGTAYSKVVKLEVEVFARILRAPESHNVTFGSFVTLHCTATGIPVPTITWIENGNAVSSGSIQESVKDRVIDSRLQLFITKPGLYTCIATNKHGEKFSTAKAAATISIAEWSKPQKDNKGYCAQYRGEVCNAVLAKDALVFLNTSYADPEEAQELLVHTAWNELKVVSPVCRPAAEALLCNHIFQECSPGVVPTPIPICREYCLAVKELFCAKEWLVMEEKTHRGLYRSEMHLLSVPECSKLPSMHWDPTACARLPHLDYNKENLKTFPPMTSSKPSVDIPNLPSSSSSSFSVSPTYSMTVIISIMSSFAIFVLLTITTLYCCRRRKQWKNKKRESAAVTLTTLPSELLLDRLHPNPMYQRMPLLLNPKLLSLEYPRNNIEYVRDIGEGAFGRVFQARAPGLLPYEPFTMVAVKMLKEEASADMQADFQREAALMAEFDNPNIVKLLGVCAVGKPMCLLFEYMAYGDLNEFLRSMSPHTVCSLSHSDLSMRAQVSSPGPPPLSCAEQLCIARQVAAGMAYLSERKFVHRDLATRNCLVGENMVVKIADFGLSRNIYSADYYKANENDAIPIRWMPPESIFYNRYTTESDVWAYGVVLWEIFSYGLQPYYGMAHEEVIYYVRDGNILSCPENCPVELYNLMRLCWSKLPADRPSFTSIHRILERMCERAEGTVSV", "details": "at 10 µM"}, "[7]": {"biological_target": "T3, Serine/threonine-protein kinase ULK1 (Homo sapiens) (UniProt O75385)", "T3 sequence (whole entry)": "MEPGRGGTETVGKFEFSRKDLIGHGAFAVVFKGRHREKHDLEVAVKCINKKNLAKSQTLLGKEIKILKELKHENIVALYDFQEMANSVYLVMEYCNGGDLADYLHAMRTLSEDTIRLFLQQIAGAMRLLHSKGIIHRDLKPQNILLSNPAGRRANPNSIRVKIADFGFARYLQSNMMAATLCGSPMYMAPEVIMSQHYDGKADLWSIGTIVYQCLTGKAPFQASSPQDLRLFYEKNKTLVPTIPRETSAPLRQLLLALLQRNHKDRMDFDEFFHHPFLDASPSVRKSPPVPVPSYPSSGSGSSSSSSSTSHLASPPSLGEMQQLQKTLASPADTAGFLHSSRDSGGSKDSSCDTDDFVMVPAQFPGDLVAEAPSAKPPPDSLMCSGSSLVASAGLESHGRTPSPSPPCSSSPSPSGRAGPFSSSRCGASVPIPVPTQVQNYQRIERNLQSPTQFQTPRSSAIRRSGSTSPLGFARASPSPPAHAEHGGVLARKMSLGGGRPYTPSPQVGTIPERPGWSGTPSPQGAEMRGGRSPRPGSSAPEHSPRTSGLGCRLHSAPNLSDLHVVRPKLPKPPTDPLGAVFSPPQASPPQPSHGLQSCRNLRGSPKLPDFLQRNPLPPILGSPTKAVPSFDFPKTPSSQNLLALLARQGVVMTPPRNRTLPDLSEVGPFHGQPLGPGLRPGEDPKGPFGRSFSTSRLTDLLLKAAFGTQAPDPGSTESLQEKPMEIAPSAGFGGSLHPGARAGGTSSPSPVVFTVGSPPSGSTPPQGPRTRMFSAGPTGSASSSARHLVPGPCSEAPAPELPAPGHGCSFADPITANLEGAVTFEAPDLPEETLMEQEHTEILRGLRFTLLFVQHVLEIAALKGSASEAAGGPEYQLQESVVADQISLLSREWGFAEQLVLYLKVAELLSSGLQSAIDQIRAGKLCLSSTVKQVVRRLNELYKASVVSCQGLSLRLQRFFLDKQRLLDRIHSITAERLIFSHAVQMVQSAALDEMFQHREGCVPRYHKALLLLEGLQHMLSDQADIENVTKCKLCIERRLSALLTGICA", "assay": "Selectivity interaction (ActivX KiNativ screen (kinase selectivity in THP-1 cell lysates)) EUB0000639a ULK1", "format": "subcellular", "details": "lysate, at 0.2 µM"}, "[8]": {"biological_target": "Ribosomal protein S6 kinase alpha-3 (Homo sapiens, UniProt P51812)", "sequence (P51812 whole entry)": "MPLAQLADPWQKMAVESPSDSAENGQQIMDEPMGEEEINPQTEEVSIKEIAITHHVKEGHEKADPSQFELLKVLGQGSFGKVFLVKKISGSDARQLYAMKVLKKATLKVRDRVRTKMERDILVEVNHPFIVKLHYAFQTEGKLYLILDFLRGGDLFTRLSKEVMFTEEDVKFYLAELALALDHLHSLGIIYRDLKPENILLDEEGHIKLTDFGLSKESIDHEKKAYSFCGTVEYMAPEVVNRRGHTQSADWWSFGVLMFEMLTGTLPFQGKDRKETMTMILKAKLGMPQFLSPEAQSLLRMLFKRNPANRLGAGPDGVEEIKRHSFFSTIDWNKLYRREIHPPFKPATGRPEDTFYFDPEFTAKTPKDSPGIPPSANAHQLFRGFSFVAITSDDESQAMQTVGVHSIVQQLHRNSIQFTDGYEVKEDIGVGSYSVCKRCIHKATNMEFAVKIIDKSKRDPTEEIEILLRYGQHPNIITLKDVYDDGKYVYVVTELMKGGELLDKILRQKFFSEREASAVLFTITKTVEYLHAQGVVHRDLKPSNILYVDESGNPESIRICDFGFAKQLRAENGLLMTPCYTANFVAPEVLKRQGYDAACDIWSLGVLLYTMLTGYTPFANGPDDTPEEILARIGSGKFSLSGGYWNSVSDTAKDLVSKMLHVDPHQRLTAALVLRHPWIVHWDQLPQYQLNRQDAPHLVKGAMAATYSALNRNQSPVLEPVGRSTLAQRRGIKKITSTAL", "assay": "Selectivity interaction (ActivX KiNativ screen (kinase selectivity in THP-1 cell lysates)) EUB0000639a RPS6KA3", "format": "subcellular", "details": "lysate, at 0.04 µM"}, "[9]": {"biological_target": "MAP/microtubule affinity-regulating kinase 3 (Homo sapiens) (UniProt P27448)", "sequence (P27448 whole entry, looked up)": "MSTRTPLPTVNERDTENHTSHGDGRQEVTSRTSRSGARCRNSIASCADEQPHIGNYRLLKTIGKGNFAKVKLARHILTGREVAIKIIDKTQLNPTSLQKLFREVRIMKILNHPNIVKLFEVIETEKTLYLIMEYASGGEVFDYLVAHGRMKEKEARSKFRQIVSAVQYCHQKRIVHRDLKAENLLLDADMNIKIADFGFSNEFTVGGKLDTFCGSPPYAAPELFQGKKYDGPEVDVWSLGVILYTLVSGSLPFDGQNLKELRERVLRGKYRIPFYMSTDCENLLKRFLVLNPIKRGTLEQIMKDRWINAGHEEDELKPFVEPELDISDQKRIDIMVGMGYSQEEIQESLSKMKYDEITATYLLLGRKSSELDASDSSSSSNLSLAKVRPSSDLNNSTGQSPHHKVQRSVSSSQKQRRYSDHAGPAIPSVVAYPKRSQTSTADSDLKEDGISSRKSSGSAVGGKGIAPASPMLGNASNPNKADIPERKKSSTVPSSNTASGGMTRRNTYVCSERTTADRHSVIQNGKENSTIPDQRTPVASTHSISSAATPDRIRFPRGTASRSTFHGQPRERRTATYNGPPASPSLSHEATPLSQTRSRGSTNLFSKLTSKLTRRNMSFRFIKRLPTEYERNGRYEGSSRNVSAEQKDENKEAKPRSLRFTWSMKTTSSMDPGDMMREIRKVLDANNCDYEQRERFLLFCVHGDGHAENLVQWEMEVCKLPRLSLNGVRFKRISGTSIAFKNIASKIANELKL", "assay": "Selectivity interaction (KinomeScan (DiscoverX)) EUB0000607a MARK3", "details": "at 10 µM"}, "[10]": {"biological_target": "Cyclin-dependent kinase 16 (Homo sapiens) (UniProt Q00536)", "assay": "Selectivity interaction (KinomeScan (DiscoverX)) EUB0000618a CDK16", "details": "at 10 µM"}},
  "data": [
    {"smiles": "COc1cc(N(C)c2ccnc3ccc(C(F)(F)F)cc23)cc(OC)c1OC", "values": [
      {"measurement": "% binding", "setting": "[1]", "result": 100, "unit": "%"}
    ]},
    {"smiles": "C=CC(=O)Nc1cccc(C(=O)Nc2ccc(Nc3cc(-c4[nH]c(SC)nc4C)ccn3)cc2)c1", "values": [
      {"measurement": "% of control", "setting": "[2]; at 1 µM", "result": 118, "unit": "%"},
      {"measurement": "% of control", "setting": "[2]; at 5 µM", "result": 106, "unit": "%"}
    ]},
    {"smiles": "CN(C(=O)c1cnn2cccnc12)c1cc2c(cc1N1CCOCC1)C(=O)N(C[C@@H](F)C(C)(C)O)C2", "values": [
      {"measurement": "dTM", "setting": "[3]", "result": 1, "unit": "K"}
    ]},
    {"smiles": "Nc1cnc(N2CCc3cc(S(=O)(=O)Nc4c(F)cc(Cl)cc4F)cc(N4CCCC4=O)c32)nc1", "note": "[TP-020n]", "values": [
      {"measurement": "% of control", "setting": "[4]", "result": 100, "unit": "%"}
    ]},
    {"smiles": "CN1CCN(C(=O)c2ccc3cc2OCCOCCNc2ccn4ncc-3c4n2)CC1", "values": [
      {"measurement": "dTM", "setting": "[5]", "result": 3.4, "unit": "K"}
    ]},
    {"smiles": "Cc1cc([C@@H](C)Nc2ccccc2C(=O)O)c2nc(N3CCOCC3)cc(=O)n2c1", "note": "[AZD-6482]", "values": [
      {"measurement": "% of control", "setting": "[6]", "result": 100, "unit": "%"}
    ]},
    {"smiles": "CC[C@@H]1[C@H](F)C(=O)N[C@@H]1COc1nccc2cc(C(N)=O)c(OC)cc12", "note": "[ZIMLOVISERTIB]", "values": [
      {"measurement": "% of inhibition", "setting": "[7]", "result": -29.3, "unit": "%"},
      {"measurement": "% of inhibition", "setting": "[8]", "result": -18.2, "unit": "%"}
    ]},
    {"smiles": "CNC(=O)Nc1ccc(-c2nc(N3CC4CCC(C3)O4)c3cnn(C4CCC5(CC4)OCCO5)c3n2)cc1", "values": [
      {"measurement": "% of control", "setting": "[9]", "result": 92, "unit": "%"}
    ]},
    {"smiles": "O[C@H]1CC[C@H](Nc2ncc3nc(Nc4c(F)cc(F)cc4F)n([C@H]4CCOC4)c3n2)CC1", "values": [
      {"measurement": "% of control", "setting": "[10]", "result": 100, "unit": "%"}
    ]}
  ]
}
